Reference: patent US11746100B2 (GLOBAL BLOOD THERAPEUTICS, INC., priority 2020, dated 2023)

The compounds below were run against T1, human ferroportin (Homo sapiens, UniProt Q9NP59) (assay: Biological in-vitro ferroportin internalization assay (luciferase reporter)). Conditions: average pEC50; stably-transfected CHO cell line expressing human ferroportin tagged to a luciferase reporter; 6 h incubation with test compound.
T1 construct: luciferase reporter (read with the Nano-Glo Luciferase Assay System); expressed in transfected cells; host or cells: CHO cells, stably transfected, expression induced with doxycycline
T1 sequence (Q9NP59 1-571): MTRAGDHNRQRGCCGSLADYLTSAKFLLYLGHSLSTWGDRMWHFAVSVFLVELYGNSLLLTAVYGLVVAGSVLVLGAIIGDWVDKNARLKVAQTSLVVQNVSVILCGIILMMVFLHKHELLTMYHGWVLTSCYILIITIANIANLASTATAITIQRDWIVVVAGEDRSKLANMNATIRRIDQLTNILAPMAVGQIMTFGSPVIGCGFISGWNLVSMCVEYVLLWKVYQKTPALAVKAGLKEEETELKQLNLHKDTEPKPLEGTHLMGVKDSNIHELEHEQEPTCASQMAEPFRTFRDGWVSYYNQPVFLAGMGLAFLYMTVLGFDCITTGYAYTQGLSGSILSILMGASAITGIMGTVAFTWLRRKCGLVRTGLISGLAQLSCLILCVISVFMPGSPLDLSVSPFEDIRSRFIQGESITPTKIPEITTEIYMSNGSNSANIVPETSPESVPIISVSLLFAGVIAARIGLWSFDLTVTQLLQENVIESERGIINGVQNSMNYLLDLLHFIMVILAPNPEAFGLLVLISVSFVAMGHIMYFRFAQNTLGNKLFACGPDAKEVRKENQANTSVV
Format: cell-based
How it was run: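 Read-out is Nano-Glo luciferase signal after 6 h compound exposure, with average pEC50 derived. Cells are a stable CHO line carrying luciferase-tagged human ferroportin, pre-loaded 24 h with ferric ammonium citrate and doxycycline-induced for 24 h.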

pEC50 | Structure (SMILES)
7.7 | COc1ccnc(-c2nc3c(c(N(C)[C@H](C)C(=O)NC4CCCCC4)n2)CCC3)c1 [Compound 119, (2R)—N-cyclohexyl-2-{[2-(4-methoxypyridin-2-yl)-5H,6H,7H-cyclopenta[d]pyrimidin-4-yl](methyl)amino}propanamide]
7.8 | CN(CC(=O)NC(C)(C)C)c1nc(-c2cc3c(cn2)OCCO3)nc2c1CCC2 [Compound 122, N-tert-butyl-2-[(2-{2H,3H-[1,4]dioxino[2,3-c]pyridin-7-yl}-5H,6H,7H-cyclopenta[d]pyrimidin-4-yl)(methyl)amino]acetamide]
7.2 | CN(c1nc(-c2ccccn2)nc2c1CCC2)[C@@H](CO)C(=O)NC(C)(C)C [Compound 123, (2S)—N-tert-butyl-3-hydroxy-2-{methyl[2-(pyridin-2-yl)-5H,6H,7H-cyclopenta[d]pyrimidin-4-yl]amino}propanamide]
7 | CN(c1nc(-c2ccccn2)nc2c1CCC2)[C@H](CO)C(=O)NC(C)(C)C [Compound 124, (2R)—N-tert-butyl-3-hydroxy-2-{methyl[2-(pyridin-2-yl)-5H,6H,7H-cyclopenta[d]pyrimidin-4-yl]amino}propanamide]
7.5 | CN(CC(=O)NC(C)(C)C)c1nc(-c2cn(C)cn2)nc2c1CCC2 [Compound 125, N-tert-butyl-2-{methyl[2-(1-methyl-1H-imidazol-4-yl)-5H,6H,7H-cyclopenta[d]pyrimidin-4-yl]amino}acetamide]
7.9 | CCN(CC(=O)NC(C)(C)C)c1nc(-c2cc(OC)ccn2)nc2c1CCC2 [Compound 126, N-tert-butyl-2-{ethyl[2-(4-methoxypyridin-2-yl)-5H,6H,7H-cyclopenta[d]pyrimidin-4-yl]amino}acetamide]
7.1 | CN(CC(=O)Nc1ccc(F)nc1)c1nc(-c2ccccn2)nc2c1CCC2 [Compound 127, N-(6-fluoropyridin-3-yl)-2-{methyl[2-(pyridin-2-yl)-5H,6H,7H-cyclopenta[d]pyrimidin-4-yl]amino}acetamide]
7.4 | COc1ccnc(-c2nc3c(c(N(C)CC(=O)Nc4ccc(F)nc4)n2)CCC3)c1 [Compound 128, N-(6-fluoropyridin-3-yl)-2-{[2-(4-methoxypyridin-2-yl)-5H,6H,7H-cyclopenta[d]pyrimidin-4-yl](methyl)amino}acetamide]
7.2 | CN(CC(=O)Nc1ccc(F)nc1)c1nc(-c2cn(C)cn2)nc2c1CCC2 [Compound 129, N-(6-fluoropyridin-3-yl)-2-{methyl[2-(1-methyl-1H-imidazol-4-yl)-5H,6H,7H-cyclopenta[d]pyrimidin-4-yl]amino}acetamide]
6.9 | CN(c1nc(-c2ccccn2)nc2c1CCC2)[C@@H]1CCN(c2ccccc2)C1=O [Compound 130, (3R)-3-{methyl[2-(pyridin-2-yl)-5H,6H,7H-cyclopenta[d]pyrimidin-4-yl]amino}-1-phenylpyrrolidin-2-one]
7.1 | CN(c1nc(-c2ccccn2)nc2c1CCC2)[C@H]1CCN(c2ccccc2)C1=O [Compound 131, (3S)-3-{methyl[2-(pyridin-2-yl)-5H,6H,7H-cyclopenta[d]pyrimidin-4-yl]amino}-1-phenylpyrrolidin-2-one]
7.3 | COc1ccnc(-c2nc3c(c(N(C)[C@@H]4CCN(c5ccccc5)C4=O)n2)CCC3)c1 [Compound 132, (3R)-3-{[2-(4-methoxypyridin-2-yl)-5H,6H,7H-cyclopenta[d]pyrimidin-4-yl](methyl)amino}-1-phenylpyrrolidin-2-one]
7 | COc1ccnc(-c2nc3c(c(N(C)CC(=O)NCCO)n2)CCC3)c1 [Compound 133, N-(2-hydroxyethyl)-2-{[2-(4-methoxypyridin-2-yl)-5H,6H,7H-cyclopenta[d]pyrimidin-4-yl](methyl)amino}acetamide]
6.9 | COc1ccnc(-c2nc3c(c(N(C)CC(=O)NC4CCOCC4)n2)CCC3)c1 [Compound 134, 2-{[2-(4-methoxypyridin-2-yl)-5H,6H,7H-cyclopenta[d]pyrimidin-4-yl](methyl)amino}-N-(oxan-4-yl)acetamide]
7.4 | COc1ccnc(-c2nc3c(c(N(C)CC(=O)NC4CCOC4)n2)CCC3)c1 (stereo not drawn) [Compound 135, 2-{[2-(4-methoxypyridin-2-yl)-5H,6H,7H-cyclopenta[d]pyrimidin-4-yl](methyl)amino}-N-(oxolan-3-yl)acetamide]
7.7 | COc1ccnc(-c2nc3c(c(N(C)CC(=O)NC(C)(C)CO)n2)CCC3)c1 [Compound 136, N-(1-hydroxy-2-methylpropan-2-yl)-2-{[2-(4-methoxypyridin-2-yl)-5H,6H,7H-cyclopenta[d]pyrimidin-4-yl](methyl)amino}acetamide]
7.8 | COc1ccnc(-c2nc3c(c(N(C)CC(=O)NC4CCCCC4)n2)CCC3)c1 [Compound 137, N-cyclohexyl-2-{[2-(4-methoxypyridin-2-yl)-5H,6H,7H-cyclopenta[d]pyrimidin-4-yl](methyl)amino}acetamide]
7.8 | COc1ccnc(-c2nc3c(c(N(C)CC(=O)Nc4cccc(F)c4)n2)CCC3)c1 [Compound 138, N-(3-fluorophenyl)-2-{[2-(4-methoxypyridin-2-yl)-5H,6H,7H-cyclopenta[d]pyrimidin-4-yl](methyl)amino}acetamide]
7.5 | COCC(C)(C)NC(=O)CN(C)c1nc(-c2cc(OC)ccn2)nc2c1CCC2 [Compound 139, N-(1-methoxy-2-methylpropan-2-yl)-2-{[2-(4-methoxypyridin-2-yl)-5H,6H,7H-cyclopenta[d]pyrimidin-4-yl](methyl)amino}acetamide]
7 | CN(CC(=O)NC1CCOCC1)c1nc(-c2cc(OCCO)ccn2)nc2c1CCC2 [Compound 140, 2-({2-[4-(2-hydroxyethoxy)pyridin-2-yl]-5H,6H,7H-cyclopenta[d]pyrimidin-4-yl}(methyl)amino)-N-(oxan-4-yl)acetamide]
7.1 | COc1ccnc(-c2nc3c(c(N(C)CC(=O)N[C@@H]4CCCC[C@H]4O)n2)CCC3)c1 [Compound 141, N-[(1R,2R)-2-hydroxycyclohexyl]-2-{[2-(4-methoxypyridin-2-yl)-5H,6H,7H-cyclopenta[d]pyrimidin-4-yl](methyl)amino}acetamide]
7.4 | CN(CC(=O)NC1CCCCC1)c1nc(-c2cn(C)cn2)nc2c1CCC2 [Compound 142, N-cyclohexyl-2-{methyl[2-(1-methyl-1H-imidazol-4-yl)-5H,6H,7H-cyclopenta[d]pyrimidin-4-yl]amino}acetamide]
7.2 | CN(CC(=O)NC(C)(C)CO)c1nc(-c2cn(C)cn2)nc2c1CCC2 [Compound 143, N-(1-hydroxy-2-methylpropan-2-yl)-2-{methyl[2-(1-methyl-1H-imidazol-4-yl)-5H,6H,7H-cyclopenta[d]pyrimidin-4-yl]amino}acetamide]
7.5 | CN(CC(=O)NC1CCCCC1)c1nc(-c2cc(OCCO)ccn2)nc2c1CCC2 [Compound 144, N-cyclohexyl-2-({2-[4-(2-hydroxyethoxy)pyridin-2-yl]-5H,6H,7H-cyclopenta[d]pyrimidin-4-yl}(methyl)amino)acetamide]
6.9 | COc1cnc(-c2nc3c(c(N(C)CC(=O)NC(C)(C)C)n2)CCC3)cc1OC [Compound 145, N-tert-butyl-2-{[2-(4,5-dimethoxypyridin-2-yl)-5H,6H,7H-cyclopenta[d]pyrimidin-4-yl](methyl)amino}acetamide]
6.8 | COc1ccnc(-c2nc3c(c(N(C)CC(=O)NC4(C)CCOC4)n2)CCC3)c1 (stereo not drawn) [Compound 146, 2-{[2-(4-methoxypyridin-2-yl)-5H,6H,7H-cyclopenta[d]pyrimidin-4-yl](methyl)amino}-N-(3-methyloxolan-3-yl)acetamide]
6.7 | CN(CC(=O)NC1(C)CCOC1)c1nc(-c2cn(C)cn2)nc2c1CCC2 (stereo not drawn) [Compound 147, 2-{methyl[2-(1-methyl-1H-imidazol-4-yl)-5H,6H,7H-cyclopenta[d]pyrimidin-4-yl]amino}-N-(3-methyloxolan-3-yl)acetamide]
7.6 | CN(CC(=O)NC(C)(C)CO)c1nc(-c2cc(OCCO)ccn2)nc2c1CCC2 [Compound 148, N-(1-hydroxy-2-methylpropan-2-yl)-2-({2-[4-(2-hydroxyethoxy)pyridin-2-yl]-5H,6H,7H-cyclopenta[d]pyrimidin-4-yl}(methyl)amino)acetamide]

Structure (SMILES) | pEC50
CN(c1nc(-c2ccccn2)nc2c1CCC2)[C@@H](COC(C)(C)C)C(=O)NC(C)(C)C [Compound 120, (2S)-3-(tert-butoxy)-N-tert-butyl-2-{methyl[2-(pyridin-2-yl)-5H,6H,7H-cyclopenta[d]pyrimidin-4-yl]amino}propanamide] | 7.2
CN(c1nc(-c2ccccn2)nc2c1CCC2)[C@H](COC(C)(C)C)C(=O)NC(C)(C)C [Compound 121, (2R)-3-(tert-butoxy)-N-tert-butyl-2-{methyl[2-(pyridin-2-yl)-5H,6H,7H-cyclopenta[d]pyrimidin-4-yl]amino}propanamide] | 7.9
